The values below come from patent US20080280860A1, “Use of Vitamin D Compounds to Treat Endometriosis” (BioXell S.p.A., priority 2005, published 2008).

Common to all, as to format: cell-based
In assay [1] the test system is Ectopic endometrium stromal cells. Nature of the assay: Proliferation of endometrial stromal cells in vitro (CyQuant), ectopic. Particulars: 1 uM-0.1 nM, 48-96 hours; FIG. 2B; may be dose dependent. The procedure:
(§1) Tissue was gently minced into small pieces (1 to 2 mm^3) and incubated at 37° C. for 1 h with 0.1% type A collagenase. At the end of the incubation, single stromal cells were separated from large clumps of epithelium by a 10 min. period of differential sedimentation at unity gravity. The top 8 ml of medium, containing predominantly stromal cells, were then slowly removed and the cells were collected by centrifugation. The stromal-enriched fraction was washed twice in culture medium and allowed to adhere selectively to tissue culture dishes for 15 min.
(§2) Thereafter, nonattached epithelial cells still present were removed and a purified stromal preparation was obtained on the surface of the culture dishes.
The cells were maintained in DMEM supplemented with 10% Fetal Bovine Serum (SIGMA) and 100 U/ml penicillin, 100 ug/ml streptomycin (GIBCO cat. no. 15140-122).
When the stromal cells were grown to confluence, were washed in PBS and then trypsinized using 1× trypsin/EDTA solution (PromoCell cat. no. C-41002). […] The proliferation was determined with CyQuant Cell Proliferation Assay (Molecular Probe cat. no. C7026). […]
The fluorescence was determined using a fluorescence microplate reader with filters appropriate for ˜480 nm excitation and ˜520 nm emission.

Assay [2] concerns human stromal endometrial cells. Briefly: Cell chemotaxis assay (modified Boyden chamber). The settings on record: FIG. 10. The procedure:
as §1, with “Human stromal cell preparation: tissue was gently” for “Tissue was gently”, “from large dumps of epithelium” for “from large clumps of epithelium”, “15 min. Thereafter, non-attached epithelial cells still present were removed and a purified stromal preparation was obtained on the surface of the culture dishes.” for “15 min.”
Endometrial stromal cells migration was evaluated by means of chemotaxis experiments in a 48-well modified Boyden chamber. With the migration assay, we assessed the ability of the cells to migrate toward a chemo-attractant on a two-dimensional substrate (in our case, collagen type IV). […] The cells that had migrated to the lower side of the filter were stained with Diff-Quick stain (VWR Scientific Products, Bridgeport, N.J.), and 5-8 unit fields per filter were counted at 160× magnification using a Zeiss microscope. […]

In another assay the test system is stromal cells. Nature of the assay: Real Time PCR for gene expression quantification in cultured cells. Particulars: 1 uM and 0.1 uM versus untreated. The procedure:
as §1, §2
Cells were incubated at 37° C. in 3% FBS DMEM (without Compound A, with Compound A at 1 uM concentration or with Compound A at 0.1 uM concentration) or 10% FBS DMEM (without Compound A, with Compound A at 1 uM concentration or with Compound A at 0.1 uM concentration). After 4 or 8 hours of incubation cells were trypsinized and collected as a cell pellet.
For total RNA extraction it was used the RNeasy Mini Kit QIAGEN (cat. no. 74106) briefly described below.
Cells were distrupted by addition of Buffer RLT and the lysate was loaded onto a QlAshredder spin column (QIAGEN cat. no. 79656) placed in a 2 ml collection tube and centrifuged for 2 min at maximum speed. A volume of 70% ethanol was added to the homogenized lysate. The sample was loaded on an RNeasy mini column placed in a 2 ml collection tube and centrifuged for 15 sec at >10000 rpm. The RNA bound to the column was digested with a DNase treatment. The column was washed with Buffer RW1 and centrifuged for 15 sec at >10000 rpm. The sample was incubated with DNase I mix (RNase-Free Dnase Set QIAGEN cat. no. 79254) at room temperature for 15 min. […] RNA concentration was evaluated by NanoDrop Spectrophotometer […]
Real Time PCR was performed by using ABI PRISM 7000 Sequence Detection System (Applied Biosystems). […] The genes analysed included Vitamin D Receptor (VDR), Cytochrome P450 (CYP24), Vascular Endothelial Growth Factor (VEGF), Estrogen Receptor alpha (ERα), Estrogen Receptor beta (ERβ), Progesterone Receptor (PR), Aromatase (CYP19), Cyclooxygenase type 2 (COX-2), Interleukin-8 (IL-8), Tumor Necrosis Factor alpha (TNF α), Caspase-3 (CASP3), Caspase-6 (CASP6), Ki-67 Nuclear Antigen (Ki-67).
Samples were incubated 2 min at 50° C., 10 min at 95° C. and amplified for 40 cycles at 95° C. for 15 sec (denaturation) and at 60° C. for 1 min (annealing/extension). The amount of gene expression was normalized to rRNA 18S gene expression and the comparative CT methods (User Bulletin #2 ABI PRISM 7000 Sequence Detection System) was used for relative quantitation.
(In qPCR the cycle at which signal appears reflects the starting amount.)

Regarding `C=C1/C(=C\C=C2/CCC[C@]3(C)C([C@@H](C)C/C=C/C(O)(CC)CC)=CC[C@@H]23)C[C@@H](O)C[C@@H]1F` [Compound A, 1-alpha-fluoro-25-hydroxy-16,23E-diene-26,27-bishomo-20-epi-cholecalciferol], the “cell proliferation, Ectopic endometrium” value in assay [1] is listed as “reduction in cell proliferation”. Further, the “reduction in migration with estrogen stimulation” value in assay [2] (1 uM pretreatment 30 min, then β-Estradiol 24 h) was “approximately 50%”. The “basal condition of migration” value in assay [2] (1 uM, without estrogen stimulation) was “No effect”. Further, the VDR expression result with stromal cells (FIG. 3A) is “Little or no change”. In addition, the VEGF expression result with stromal cells (FIG. 3B) is given as “Little or no change”. Besides, in the assay on stromal cells (FIG. 3C), the Cyp24 expression entry is recorded as “marked upregulation”. In the assay with stromal cells (FIG. 3D), the Cyp19 expression result is “Little or no change”.
